Measurements as given in PubChem BioAssay AID743107 (Vanderbilt Specialized Chemistry Center, 2013).
The source made the active and inactive calls.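 The calls were made as follows: active = compound leaving under 60% of the human M5 receptor calcium signal; inactive = the rest.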

What follows are compounds tested against Muscarinic acetylcholine receptor M5 (Homo sapiens) (UniProt P08912) (assay: human M5 muscarinic receptor antagonists, cell-based, single concentration, CHO-K1 hM5, ACh EC80 (AID 743107)). Settings: CHO-K1 hM5, calcium flux, at 10 µM, hits give low values.
Muscarinic acetylcholine receptor M5 (Homo sapiens), sequence (P08912 whole entry, looked up): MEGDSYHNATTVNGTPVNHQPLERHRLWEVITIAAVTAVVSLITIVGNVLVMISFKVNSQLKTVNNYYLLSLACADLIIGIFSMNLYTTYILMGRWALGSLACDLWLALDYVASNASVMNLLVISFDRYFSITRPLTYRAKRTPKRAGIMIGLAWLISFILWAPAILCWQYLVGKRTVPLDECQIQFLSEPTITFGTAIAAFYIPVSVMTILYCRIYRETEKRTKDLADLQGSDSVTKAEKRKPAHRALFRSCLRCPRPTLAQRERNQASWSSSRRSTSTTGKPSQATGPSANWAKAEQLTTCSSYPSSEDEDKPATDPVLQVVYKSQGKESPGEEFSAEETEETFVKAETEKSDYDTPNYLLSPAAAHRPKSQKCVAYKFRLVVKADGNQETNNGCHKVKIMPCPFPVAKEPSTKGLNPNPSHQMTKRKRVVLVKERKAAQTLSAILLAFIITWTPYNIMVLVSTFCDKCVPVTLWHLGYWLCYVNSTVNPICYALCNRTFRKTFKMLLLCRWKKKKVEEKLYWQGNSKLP

SMILES	activity remaining
CC(c1ccccn1)N(C)C(=O)c1cc(COc2ccc(F)c(F)c2)on1 (stereo not given)	85.3% (inactive)
CCOc1cccc(OCc2cc(C(=O)N(C)C(C)c3ccccn3)no2)c1 (stereo not given)	79.2% (inactive)
Cc1ccccc1C(=O)NCc1cc(C(=O)N(C)C(C)c2ccccn2)no1 (stereo not given)	73.8% (inactive)
CC(=O)c1cccc(OCc2cc(C(=O)NCc3ccccn3)no2)c1	88.7% (inactive)
CC(c1ccccn1)N(C)C(=O)c1cc(COc2cccc(CO)c2)on1 (stereo not given)	75.5% (inactive)
CC(c1ccccn1)N(C)C(=O)c1cc(COc2cccc(F)c2)on1 (stereo not given)	77.1% (inactive)
CC(c1ccccn1)N(C)C(=O)c1cc(CNC(=O)c2ccc(F)cc2)on1 (stereo not given)	77% (inactive)
CC(c1ccccn1)N(C)C(=O)c1cc(CNC(=O)C2CCCC2)on1 (stereo not given)	77.7% (inactive)
CC(=O)NCc1cc(C(=O)N(C)C(C)c2ccccn2)no1 (stereo not given)	76.8% (inactive)
CC(=O)c1cccc(OCc2cc(C(=O)N3CCc4cccnc4C3)no2)c1	86.8% (inactive)
CC(c1ccccn1)N(C)C(=O)c1cc(COc2cccc(C=O)c2)on1 (stereo not given)	83.1% (inactive)
CC(=O)c1cccc(N(Cc2cc(C(=O)N(C)C(C)c3ccccn3)no2)C(=O)c2cccc(C)c2)c1 (stereo not given)	65.5% (inactive)
COc1cccc(OCc2cc(C(=O)N(C)C(C)c3ccccn3)no2)c1 (stereo not given)	79.8% (inactive)
CC(=O)c1cccc(N(Cc2cc(C(=O)N(C)C(C)c3ccccn3)no2)C(=O)c2ccc(C)cc2)c1 (stereo not given)	63.5% (inactive)
Cc1ccc(OCc2cc(C(=O)N(C)C(C)c3ccccn3)no2)cc1 (stereo not given)	78.5% (inactive)
CC(c1ccccn1)N(C)C(=O)c1cc(COc2cccc([N+](=O)[O-])c2)on1 (stereo not given)	73.7% (inactive)
COc1ccc(OCc2cc(C(=O)N(C)C(C)c3ccccn3)no2)cc1 (stereo not given)	82.8% (inactive)
CC(=O)c1cccc(N(Cc2cc(C(=O)N(C)C(C)c3ccccn3)no2)C(C)=O)c1 (stereo not given)	70.4% (inactive)

SMILES	activity remaining
CC(c1ccccn1)N(C)C(=O)c1cc(COc2ccc3c(c2)CCCC3)on1 (stereo not given)	79% (inactive)
CCN(C(=O)c1cc(COc2cccc(C(C)=O)c2)on1)C(C)c1ccccn1 (stereo not given)	14.2%
CC(=O)c1cccc(N(Cc2cc(C(=O)N(C)C(C)c3ccccn3)no2)C(=O)C2CCCC2)c1 (stereo not given)	66% (inactive)
CC(=O)c1cccc(OCc2cc(C(=O)N(C)c3ccccn3)no2)c1	77.8% (inactive)
CC(Cl)c1cccc(OCc2cc(C(=O)N(C)C(C)c3ccccn3)no2)c1 (stereo not given)	76.1% (inactive)
CC(=O)c1cccc(N(Cc2cc(C(=O)N(C)C(C)c3ccccn3)no2)S(=O)(=O)c2ccccc2[N+](=O)[O-])c1 (stereo not given)	60.6% (inactive)
CC(c1ccccn1)N(C)C(=O)c1cc(COc2ccccc2Cl)on1 (stereo not given)	77.2% (inactive)
CC(c1ccccn1)N(C)C(=O)c1cc(CNS(C)(=O)=O)on1 (stereo not given)	80.4% (inactive)
CC(c1ccccn1)N(C)C(=O)c1cc(COc2ccccc2F)on1 (stereo not given)	83.7% (inactive)
Cc1ccccc1OCc1cc(C(=O)N(C)C(C)c2ccccn2)no1 (stereo not given)	79.9% (inactive)
CC(=O)c1cccc(N(Cc2cc(C(=O)N(C)C(C)c3ccccn3)no2)C(=O)c2ccccc2)c1 (stereo not given)	69.6% (inactive)
CC(c1ccccn1)N(C)C(=O)c1cc(COc2cccc(Oc3ccccc3)c2)on1 (stereo not given)	83.1% (inactive)
CC(=O)c1cccc(OCc2cc(C(=O)N(C)c3cccc4cccnc34)no2)c1	74.2% (inactive)
CC(O)c1cccc(OCc2cc(C(=O)N(C)C(C)c3ccccn3)no2)c1 (stereo not given)	69.3% (inactive)
CC(=O)c1cccc(N(Cc2cc(C(=O)N(C)C(C)c3ccccn3)no2)C(=O)c2ccccc2C)c1 (stereo not given)	67.2% (inactive)
CC(=O)c1cccc(N(Cc2cc(C(=O)N(C)C(C)c3ccccn3)no2)C(=O)c2cccc(F)c2)c1 (stereo not given)	70% (inactive)
CC(=O)c1cccc(N(Cc2cc(C(=O)N(C)C(C)c3ccccn3)no2)C(=O)C(C)(C)C)c1 (stereo not given)	73.9% (inactive)
COc1ccccc1C(=O)NCc1cc(C(=O)N(C)C(C)c2ccccn2)no1 (stereo not given)	76.4% (inactive)

The next lines start with the values.

activity remaining	SMILES
81.5% (inactive)	CC(=O)c1cccc(OCc2cc(C(=O)N3CCc4ccccc4C3C)no2)c1 (stereo not given)
78.2% (inactive)	CC(=O)c1cccc(OCc2cc(C(=O)N(C)C(C)c3cccnc3)no2)c1 (stereo not given)
80.9% (inactive)	CC(=O)c1cccc(OCc2cc(C(=O)N(C)C(C)c3ccncc3)no2)c1 (stereo not given)
75% (inactive)	CC(=O)c1ccc(OCc2cc(C(=O)N(C)C(C)c3ccccn3)no2)cc1 (stereo not given)
78.2% (inactive)	CC(c1ccccn1)N(C)C(=O)c1cc(CNC(=O)c2cccc(F)c2)on1 (stereo not given)
84.2% (inactive)	CC(c1ccccn1)N(C)C(=O)c1cc(COc2ccc(Cl)cc2)on1 (stereo not given)
77.1% (inactive)	CC(=O)c1cccc(OCc2cc(C(=O)Nc3ccccn3)no2)c1
84.1% (inactive)	CC(c1ccccn1)N(C)C(=O)c1cc(COc2cccc(C(F)(F)F)c2)on1 (stereo not given)
76.7% (inactive)	CC(c1ccccn1)N(C)C(=O)c1cc(CNC(=O)c2ccccc2)on1 (stereo not given)
52.9%	CC(=O)c1cccc(OCc2cc(C(=O)N(C)C(C)c3ccccc3)no2)c1 (stereo not given)
76.6% (inactive)	CC(=O)c1cccc(OCc2cc(C(=O)N(C)Cc3ccccc3)no2)c1
75.1% (inactive)	Cc1ccc(C(=O)NCc2cc(C(=O)N(C)C(C)c3ccccn3)no2)cc1 (stereo not given)
71.5% (inactive)	Cc1cccc(C(=O)NCc2cc(C(=O)N(C)C(C)c3ccccn3)no2)c1 (stereo not given)
80.4% (inactive)	CC(=O)c1ccccc1OCc1cc(C(=O)N(C)C(C)c2ccccn2)no1 (stereo not given)
71.8% (inactive)	CC(=O)c1cccc(N(Cc2cc(C(=O)N(C)C(C)c3ccccn3)no2)C(=O)c2ccc(F)cc2)c1 (stereo not given)
21.4%	CC(=O)c1cccc(NCc2cc(C(=O)N(C)C(C)c3ccccn3)no2)c1 (stereo not given)
67.3% (inactive)	COC(=O)c1cccc(OCc2cc(C(=O)N(C)C(C)c3ccccn3)no2)c1 (stereo not given)
77.8% (inactive)	CC(c1ccccn1)N(C)C(=O)c1cc(CNC(=O)C(C)(C)C)on1 (stereo not given)
72.6% (inactive)	CC(=O)c1cccc(OCc2cc(C(=O)NC(c3ccccn3)C(F)(F)F)no2)c1 (stereo not given)
71.8% (inactive)	CC(c1ccccn1)N(C)C(=O)c1cc(CNC(=O)c2ccccc2F)on1 (stereo not given)
73.8% (inactive)	COc1ccccc1C(=O)N(Cc1cc(C(=O)N(C)C(C)c2ccccn2)no1)c1cccc(C(C)=O)c1 (stereo not given)
71.7% (inactive)	CC(c1ccccn1)N(C)C(=O)c1cc(COc2cccc(Br)c2)on1 (stereo not given)
82.2% (inactive)	CC(c1ccccn1)N(C)C(=O)c1cc(COc2ccc(F)cc2)on1 (stereo not given)
74.8% (inactive)	CC(=O)c1cccc(N(Cc2cc(C(=O)N(C)C(C)c3ccccn3)no2)C(=O)c2ccccc2F)c1 (stereo not given)
